We go through twelve molecules from patent publication US20220380341A1, “INHIBITORS OF HIV-1 NEF FOR THE TREATMENT OF HIV DISEASE” (priority 2018, published 2022).

In general, inhibition refers to the relative decrease from the control value, in per cent.

Read-outs that look alike come from different tables or passages of the source.

In one series the test system is TZM-bl cell line. The series is classed as cell-based. To be noted: 1 μM. In outline:
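Nef-dependent infectivity in TZM-bl cells: HIV-1NL4-3 infection with 1 μM compound, luciferase read at 48 h, normalized against DMSO wild-type and Nef-defective controls. Compound cytotoxicity in uninfected cells measured by Cell Titer Blue.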

For the next series, the target named is HIV-1 NefNL4-3 (Human immunodeficiency virus type 1 group M subtype B, UniProt P03406, A33V/T15A/T51N/V11I). As to the kind of experiment: Surface plasmon resonance binding to recombinant full-length Nef (NL4-3). Conditions: for RU30/RUNef (extent of binding): response units at 30 μM relative to Nef immobilized on the SPR chip.
A further series has as its system HIV-1NL4-3. Description: HIV-1 infectivity assay in TZM-bl reporter cell line (LTR-luciferase, 48 h). It counts as cell-based. Conditions: for inhibition at 1 µM: Human immunodeficiency virus 1, TZM-bl. In short, it runs like this:
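Compounds were tested at 1 μM in TZM-bl cells infected with HIV-1NL4-3. Infectivity was read as luciferase signal 48 h after infection and expressed as percent inhibition, normalized between DMSO-treated wild-type infection (0%) and DMSO-treated Nef-defective HIV-1 infection (100% of the Nef-dependent effect).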

Setting [1] is: KD, M, Table 4, SPR fit 2-step induced fit, KD = koff/kon × koff2/(koff2 + kon2).
Setting [2] is: Nef NL4-3 Binding, SPR 2-state fitting KD, Table 1, 2-step induced-fit model.
The mark [3] stands for this setting: Table 4, 2-step induced fit, T = 1/koff2.
Setting [4] is: 1.0 μM, TZM-bl reporter cell line, Table 4, read-out: % Infectivity Inhibition.
[5] abbreviates: 48 h, Table 1, TZM-bl cells, 1 μM, 48 h, 100% = Nef-defective HIV-1, read-out: HIV-1 Infectivity % Inhibition Norm. to Δ-Nef @ 1 μM.
The mark [6] stands for this setting: KD, M, Table 4, SPR fit 1:1 Langmuir, KD = koff/kon.
The mark [7] stands for this setting: Table 4, 1:1 Langmuir fit, T = 1/koff.
The mark [8] stands for this setting: 48 h, Table 2, TZM-bl cells, 1 μM, 48 h, 100% = Nef-defective HIV-1, read-out: HIV-1 Infectivity % Inhibition Norm. to Δ-Nef @ 1 μM.

Take `Oc1c(CCc2ccc(F)cc2)c(-c2ccccc2)nn1-c1nc2cc(Cl)ccc2[nH]1` [Compound I-165, 1-(5-chloro-1H-1,3-benzodiazol-2-yl)-4-[2-(4-fluorophenyl)ethyl]-3-phenyl-1H-pyrazol-5-ol]: the “% Cell Viability” value with TZM-bl cell line (human) is listed as 89.6%. For the same molecule, the “Percent Viability @ 1 μM (TZM-bl cells)” value in the series with TZM-bl cell line (human) turned out to be 89.6%. The Kd on HIV-1 NefNL4-3 was 689 nM; at HIV-1 NefNL4-3 (setting [1]), 636 nM; on HIV-1 NefNL4-3 (setting [2]), 636 nM. Moreover, the “T, minutes (residence time)” value at HIV-1 NefNL4-3 (setting [3]) is 5.10E + 00 minutes. Moreover, the “RU30/RUNef (extent of binding)” value on HIV-1 NefNL4-3 amounted to 4.14E- 02. For the same molecule, the inhibition at 1 µM with HIV-1NL4-3 (setting [4]) and with HIV-1NL4-3 (setting [5]) was 25.3% each time.
Turning to `Cn1c(-n2nc(-c3cccc(S(C)(=O)=O)c3)c(CCc3ccc(F)cc3)c2O)nc2ccccc21` [Compound I-405, 4-[2-(4-fluorophenyl)ethyl]-3-(3-methanesulfonylphenyl)-1-(1-methyl-1H-1,3-benzodiazol-2-yl)-1H-pyrazol-5-ol], in the series with TZM-bl cell line (human), the “% Cell Viability” value stood at 95.7% and the “Percent Viability @ 1 μM (TZM-bl cells)” value worked out at 95.7%. At HIV-1 NefNL4-3, the Kd is 4390 nM and the “RU30/RUNef (extent of binding)” value stood at 3.25E- 03. Also, the Kd on HIV-1 NefNL4-3 (setting [6]) came out at 4390 nM. Also, the “T, minutes (residence time)” value on HIV-1 NefNL4-3 (setting [7]) is listed as 2.32E + 00 minutes. Further, in the series on HIV-1NL4-3 (setting [4]), the inhibition at 1 µM was determined as 0%. The inhibition at 1 µM in the series on HIV-1NL4-3 (setting [5]) was -9.6%.
For the molecule `O=C(Cc1ccncc1)N1CCC(c2nn(-c3nc4ccccc4[nH]3)c(O)c2CCc2ccc(F)cc2)CC1` [Compound I-734, 1-{4-[1-(1H-1,3-benzodiazol-2-yl)-4-[2-(4-fluorophenyl)ethyl]-5-hydroxy-1H-pyrazol-3-yl]piperidin-1-yl}-2-(pyridin-4-yl)ethan-1-one], the “Percent Viability @ 1 μM (TZM-bl cells)” value with TZM-bl cell line (human) was 96.0%. The Kd at HIV-1 NefNL4-3 was 576 nM. Besides, the inhibition at 1 µM with HIV-1NL4-3 (setting [5]) was -8.2%.
Consider `Oc1c(CCc2ccc(F)cc2)c(C2CCOCC2)nn1-c1cc(C(F)(F)F)n[nH]1` [Compound I-623, 4-[2-(4-fluorophenyl)ethyl]-3-(oxan-4-yl)-5′-(trifluoromethyl)-2′H-[1,3′-bipyrazol]-5-ol], for which the “% Cell Viability” value in the series with TZM-bl cell line (human) is 100%. Also, the “Percent Viability @ 1 μM (TZM-bl cells)” value in the series with TZM-bl cell line (human) is 100.7%. For the same molecule, the Kd on HIV-1 NefNL4-3 and at HIV-1 NefNL4-3 (setting [6]) was 221000 nM in each case. Also, the “T, minutes (residence time)” value at HIV-1 NefNL4-3 (setting [7]) is on record as 2.88E + 00 minutes. For the same molecule, on HIV-1 NefNL4-3, the “RU30/RUNef (extent of binding)” value is 1.67E- 02. Further, the inhibition at 1 µM with HIV-1NL4-3 (setting [4]) and in the series with HIV-1NL4-3 (setting [8]) was 17.4% each time.
With `CS(=O)(=O)c1ccc(-c2nn(-c3cc(C(F)(F)F)n[nH]3)c(O)c2CCc2ccc(F)cc2)cc1` [Compound I-603, 4-[2-(4-fluorophenyl)ethyl]-3-(4-methanesulfonylphenyl)-5′-(trifluoromethyl)-2′H-[1,3′-bipyrazol]-5-ol], the “% Cell Viability” value in the series on TZM-bl cell line (human) is given as 100%. Moreover, the “Percent Viability @ 1 μM (TZM-bl cells)” value with TZM-bl cell line (human) is 106.0%. Moreover, the Kd stood at 1830 nM on HIV-1 NefNL4-3; 35100 nM on HIV-1 NefNL4-3 (setting [1]); 3600 nM at HIV-1 NefNL4-3 (Nef NL4-3 Binding, SPR 1:1 or 2-site fitting KD2, Table 2, 2-site fit, second component); 58 nM at HIV-1 NefNL4-3 (Nef NL4-3 Binding, SPR 2-state fitting KD, Table 2, 2-step induced-fit model). The “T, minutes (residence time)” value on HIV-1 NefNL4-3 (setting [3]) is recorded as 2.18E + 00 minutes. On HIV-1 NefNL4-3, the “RU30/RUNef (extent of binding)” value is given as 1.19E- 02. For the same molecule, the inhibition at 1 µM with HIV-1NL4-3 (setting [4]) and in the series with HIV-1NL4-3 (setting [8]) was 57.8% throughout.
On to `O=S(=O)(c1cccnc1)N1CCCC(c2nn(-c3nc4ccccc4[nH]3)c(O)c2CCc2ccc(F)cc2)C1` (centres unmarked) [Compound I-758, 1-(1H-1,3-benzodiazol-2-yl)-4-[2-(4-fluorophenyl)ethyl]-3-[1-(pyridine-3-sulfonyl)piperidin-3-yl]-1H-pyrazol-5-ol], for which the “% Cell Viability” value with TZM-bl cell line (human) is given as 99.8%. Moreover, the “Percent Viability @ 1 μM (TZM-bl cells)” value with TZM-bl cell line (human) was determined as 99.8%. The Kd on HIV-1 NefNL4-3 worked out at 63.1 nM; on HIV-1 NefNL4-3 (setting [6]), 68.1 nM. Besides, the “T, minutes (residence time)” value on HIV-1 NefNL4-3 (setting [7]) was 9.21E + 01 minutes. Further, the “RU30/RUNef (extent of binding)” value at HIV-1 NefNL4-3 worked out at 2.95E- 03. Moreover, the inhibition at 1 µM with HIV-1NL4-3 (setting [4]) and with HIV-1NL4-3 (setting [5]) was 54.9% throughout.
As to `CS(=O)(=O)N1CCC(c2nn(-c3nc4cc(Cl)ccc4[nH]3)c(O)c2CCC2CCOCC2)CC1` [Compound I-706, 1-(5-chloro-1H-1,3-benzodiazol-2-yl)-3-(1-methanesulfonylpiperidin-4-yl)-4-[2-(oxan-4-yl)ethyl]-1H-pyrazol-5-ol], in the series on TZM-bl cell line (human), the “% Cell Viability” value is reported as 98.6%. For the same molecule, the “Percent Viability @ 1 μM (TZM-bl cells)” value with TZM-bl cell line (human) is reported as 98.6%. Further, the Kd on HIV-1 NefNL4-3 and on HIV-1 NefNL4-3 (setting [6]) was 1170 nM each time. The “T, minutes (residence time)” value at HIV-1 NefNL4-3 (setting [7]) stood at 3.95E + 00 minutes. Moreover, the “RU30/RUNef (extent of binding)” value on HIV-1 NefNL4-3 is 2.34E- 03. Further, the inhibition at 1 µM in the series with HIV-1NL4-3 (setting [4]) and with HIV-1NL4-3 (setting [5]) was 9.8% each time.
For `O=C(c1cccc(O)n1)N1CCC(Cc2nn(-c3nc4ccccc4[nH]3)c(O)c2CCc2ccc(F)cc2)CC1` [Compound I-766, 6-(4-{[1-(1H-1,3-benzodiazol-2-yl)-4-[2-(4-fluorophenyl)ethyl]-5-hydroxy-1H-pyrazol-3-yl]methyl}piperidine-1-carbonyl)pyridin-2-ol], in the series on TZM-bl cell line (human), the “Percent Viability @ 1 μM (TZM-bl cells)” value is 99.5%. Moreover, the Kd at HIV-1 NefNL4-3 is 481 nM. Further, the inhibition at 1 µM in the series on HIV-1NL4-3 (setting [5]) is 46.9%.
Take `Oc1c(CCc2ccc(F)cc2)c(C2CCN(CC3CCOCC3)CC2)nn1-c1nc2ccccc2[nH]1` [Compound I-806, 1-(1H-1,3-benzodiazol-2-yl)-4-[2-(4-fluorophenyl)ethyl]-3-{1-[(oxan-4-yl)methyl]piperidin-4-yl}-1H-pyrazol-5-ol]: in the series with TZM-bl cell line (human), the “% Cell Viability” value is 99.1% and the “Percent Viability @ 1 μM (TZM-bl cells)” value is recorded as 99.1%. On HIV-1 NefNL4-3, the Kd turned out to be 9900 nM and the “RU30/RUNef (extent of binding)” value was 7.48E- 04. For the same molecule, the Kd on HIV-1 NefNL4-3 (setting [6]) came to 9900 nM. On HIV-1 NefNL4-3 (setting [7]), the “T, minutes (residence time)” value stood at 1.79E + 00 minutes. The inhibition at 1 µM with HIV-1NL4-3 (setting [4]) is 20.6%. In addition, the inhibition at 1 µM with HIV-1NL4-3 (setting [5]) is 20.6%.
Turning to `COC(=O)c1ccc(CCc2c(-c3ccccc3)nn(-c3nc4cc(Cl)ccc4[nH]3)c2O)cc1` [Compound I-171, methyl 4-{2-[1-(5-chloro-1H-1,3-benzodiazol-2-yl)-5-hydroxy-3-phenyl-1H-pyrazol-4-yl]ethyl}benzoate], in the series on TZM-bl cell line (human), the “% Cell Viability” value stood at 75.8%. In the series with TZM-bl cell line (human), the “Percent Viability @ 1 μM (TZM-bl cells)” value amounted to 75.8%. The results for the Kd at HIV-1 NefNL4-3, at HIV-1 NefNL4-3 (setting [1]) and at HIV-1 NefNL4-3 (setting [2]) were 892 nM, 13.3 nM and 13.3 nM, respectively. At HIV-1 NefNL4-3 (setting [3]), the “T, minutes (residence time)” value is 7.82E + 02 minutes. In addition, the “RU30/RUNef (extent of binding)” value at HIV-1 NefNL4-3 was 2.77E- 02. Moreover, the inhibition at 1 µM in the series on HIV-1NL4-3 (setting [4]) is 100%; in the series on HIV-1NL4-3 (setting [5]), 131%.
With `Oc1c(CCC2CCNCC2)c(-c2ccc(C(F)(F)F)cn2)nn1-c1nc2cc(Br)ccc2[nH]1` [Compound I-555, 1-(5-bromo-1H-1,3-benzodiazol-2-y1)-4-[2-(piperidin-4-yl)ethyl]-3-[5-(trifluoromethyl)pyridin-2-yl]-1H-pyrazol-5-ol], in the series with TZM-bl cell line (Table 1, uninfected TZM-bl cells, Cell Titer Blue), the “Percent Viability @ 1 μM (TZM-bl cells)” value is recorded as 104.6%. Further, the Kd at HIV-1 NefNL4-3 (Table 1, 1:1 Langmuir fit where the KD2 cell says '1 to 1 fitting', else 2-site fit, read-out: Nef NL4-3 Binding, SPR 1:1 or 2-site fitting KD1) was 875 nM. The “HIV-1 Infectivity % Inhibition Norm. to Δ-Nef @ 1 μM” value in the series with HIV-1NL4-3 (Table 1, TZM-bl cells, 1 μM, 48 h, 100% = Nef-defective HIV-1) is −118.0%.
As for `CS(=O)(=O)c1cccc(-c2nn(-c3nc4cccnc4[nH]3)c(O)c2CCc2ccc(F)cc2)c1` [Compound I-311, 4-[2-(4-fluorophenyl)ethyl]-1-{3H-imidazo[4,5-b]pyridin-2-yl}-3-(3-methanesulfonylphenyl)-1H-pyrazol-5-ol], the “Percent Viability @ 1 μM (TZM-bl cells)” value in the series on TZM-bl cell line (human) is reported as 94.5%. Also, at HIV-1 NefNL4-3, the Kd turned out to be 1010 nM. Further, the inhibition at 1 µM with HIV-1NL4-3 (setting [5]) was found to be 29.8%.
